Source: patent US20250171461A1, “STIMULATOR OF INTERFERON GENES (STING) MODULATORS, AND COMPOSITIONS AND METHODS THEREOF” (Geode Therapeutics Inc., priority 2022, published 2025)

biological target: T1, human HAQ STING isoform (hSTING HAQ) (Homo sapiens, UniProt Q86WV6, G230A/H232R/R293Q/R71H); test: IFN-β mRNA level in THP1 cells (qPCR, STING agonist cellular activity); format: cell-based; conditions: compound at 3.6 μM, 2 hrs, IFNβ expression normalized against GAPDH by the 2^-ΔΔCT method, DMSO = 1.0
T1 construct: THP1 cells express the naturally occurring human HAQ STING isoform (hSTING HAQ); host or cells: THP1
T1 sequence (Q86WV6 whole entry R71H/G230A/H232R/R293Q, canonical isoform): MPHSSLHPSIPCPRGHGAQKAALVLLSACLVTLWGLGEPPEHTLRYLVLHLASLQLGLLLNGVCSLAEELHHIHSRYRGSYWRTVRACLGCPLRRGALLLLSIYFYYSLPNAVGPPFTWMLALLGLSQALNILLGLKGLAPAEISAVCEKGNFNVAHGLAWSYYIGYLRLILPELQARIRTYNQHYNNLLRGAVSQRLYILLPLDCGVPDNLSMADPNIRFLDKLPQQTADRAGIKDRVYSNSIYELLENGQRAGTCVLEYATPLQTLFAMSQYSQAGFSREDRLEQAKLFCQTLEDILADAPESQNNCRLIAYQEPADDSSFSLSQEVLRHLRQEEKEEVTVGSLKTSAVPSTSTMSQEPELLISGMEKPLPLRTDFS
Summary of the method: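 THP1 cells were seeded at 9×10^5 per well, incubated overnight, then treated with compound at 3.6 μM final (0.1% DMSO control) for 2 hrs at 37 °C. IFN-β mRNA was measured by SYBR Green qPCR, normalised to GAPDH by the 2^−ΔΔCT method, in triplicate.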

Compound	Relative mRNA INFβ/GAPDH THP 1
Cc1cc(CN(Cc2cn3c4c(c(F)c(F)cc4c2=O)OCC3)[C@H]2CCCN(c3ccc(N)nc3)C2)cc(C)c1F [Compound 78, (S)-6-(((1-(6-aminopyridin-3-yl)piperidin-3-yl)(4-fluoro-3,5-dimethylbenzyl)amino)methyl)-9,10-difluoro-2,3-dihydro-7H-[1,4]oxazino[2,3,4-ij]quinolin-7-one]	1.2
Nc1ccc(N2CCC[C@H](N(Cc3ccncc3Cl)Cc3cn4c5c(c(F)c(F)cc5c3=O)OCC4)C2)cn1 [Compound 79, (S)-6-(((1-(6-aminopyridin-3-yl)piperidin-3-yl)((3-chloropyridin-4-yl)methyl)amino)methyl)-9,10-difluoro-2,3-dihydro-7H-[1,4]oxazino[2,3,4-ij]quinolin-7-one]	335.5
O=c1c(CN(Cc2ccncn2)[C@H]2CCCN(c3cnccn3)C2)cn2c3c(c(F)c(F)cc13)OCC2 [Compound 85, (S)-9,10-difluoro-6-(((1-(pyrazin-2-yl)piperidin-3-yl)(pyrimidin-4-ylmethyl)amino)methyl)-2,3-dihydro-7H-[1,4]oxazino[2,3,4-ij]quinolin-7-one]	0.9
COc1cnccc1CN(Cc1cn2c3c(c(F)c(F)cc3c1=O)OCC2)[C@H]1CCCN(c2cnccn2)C1 [Compound 86, (S)-9,10-difluoro-6-((((3-methoxypyridin-4-yl)methyl)(1-(pyrazin-2-yl)piperidin-3-yl)amino)methyl)-2,3-dihydro-7H-[1,4]oxazino[2,3,4-ij]quinolin-7-one]	1.1
O=c1c(CN(Cc2ccncc2F)[C@H]2CCCN(c3cnccn3)C2)cn2c3c(c(F)c(F)cc13)OCC2 [Compound 87, (S)-9,10-difluoro-6-((((3-fluoropyridin-4-yl)methyl)(1-(pyrazin-2-yl)piperidin-3-yl)amino)methyl)-2,3-dihydro-7H-[1,4]oxazino[2,3,4-ij]quinolin-7-one]	1.2
COC(=O)c1cc(CN(Cc2cn3c4c(c(F)c(F)cc4c2=O)OCC3)[C@H]2CCCN(c3cnccn3)C2)ccn1 [Compound 88, methyl (S)-4-((((9,10-difluoro-7-oxo-2,3-dihydro-7H-[1,4]oxazino[2,3,4-ij]quinolin-6-yl)methyl)(1-(pyrazin-2-yl)piperidin-3-yl)amino)methyl)picolinate]	0.8
CCN1CCN(c2c(F)cc3c(=O)c(CN(Cc4ccnc(OC)c4)[C@H]4CCCN(c5ccc(N)nc5)C4)cn4c3c2OCC4)CC1 [Compound 93, (S)-6-(((1-(6-aminopyridin-3-yl)piperidin-3-yl)((2-methoxypyridin-4-yl)methyl)amino)methyl)-10-(4-ethylpiperazin-1-yl)-9-fluoro-2,3-dihydro-7H-[1,4]oxazino[2,3,4-ij]quinolin-7-one]	411.3
COc1cc(CN(Cc2cn3c4c(c(N5CCN(C)CC5)c(F)cc4c2=O)OCC3)[C@H]2CCCN(c3ccc(N)nc3)C2)ccn1 [Compound 94, (S)-6-(((1-(6-aminopyridin-3-yl)piperidin-3-yl)((2-methoxypyridin-4-yl)methyl)amino)methyl)-9-fluoro-10-(4-methylpiperazin-1-yl)-2,3-dihydro-7H-[1,4]oxazino[2,3,4-ij]quinolin-7-one]	248.8
Cc1cncc(CN(Cc2cn3c4c(c(N5CCN(C)CC5)c(F)cc4c2=O)OCC3)[C@@H]2CCCN(c3cnccn3)C2)c1 [Compound 95, (R)-9-fluoro-10-(4-methylpiperazin-1-yl)-6-((((5-methylpyridin-3-yl)methyl)(1-(pyrazin-2-yl)piperidin-3-yl)amino)methyl)-2,3-dihydro-7H-[1,4]oxazino[2,3,4-ij]quinolin-7-one]	1.2
COc1cc(CN(Cc2cn3c4c(c(N5CCN(C)CC5)c(F)cc4c2=O)OCC3C(C)C)[C@H]2CCCN(c3ccc(N)nc3)C2)ccn1 (stereo partly drawn) [Compound 96, 6-((((S)-1-(6-aminopyridin-3-yl)piperidin-3-yl)((2-methoxypyridin-4-yl)methyl)amino)methyl)-9-fluoro-3-isopropyl-10-(4-methylpiperazin-1-yl)-2,3-dihydro-7H-[1,4]oxazino[2,3,4-ij]quinolin-7-one]	451.1

The remaining lines, values ahead:

Relative mRNA INFβ/GAPDH THP 1	Compound
6820.3	COc1cc(CN(Cc2cn3c4c(c(F)c(F)cc4c2=O)OCC3)[C@H]2CCCN(c3ccc(C)nc3)C2)ccn1 [Compound 80, (S)-9,10-difluoro-6-((((2-methoxypyridin-4-yl)methyl)(1-(6-methylpyridin-3-yl)piperidin-3-yl)amino)methyl)-2,3-dihydro-7H-[1,4]oxazino[2,3,4-ij]quinolin-7-one]
5719.5	Cc1cc(CN(Cc2cn3c4c(c(F)c(F)cc4c2=O)OCC3)[C@H]2CCCN(c3cccnc3)C2)ccn1 [Compound 81, (S)-9,10-difluoro-6-((((2-methylpyridin-4-yl)methyl)(1-(pyridin-3-yl)piperidin-3-yl)amino)methyl)-2,3-dihydro-7H-[1,4]oxazino[2,3,4-ij]quinolin-7-one]
1.2	Cc1cc(CN(Cc2cn3c4c(c(F)c(F)cc4c2=O)OCC3)[C@H]2CCCN(c3cnccn3)C2)ccn1 [Compound 83, (S)-9,10-difluoro-6-((((2-methylpyridin-4-yl)methyl)(1-(pyrazin-2-yl)piperidin-3-yl)amino)methyl)-2,3-dihydro-7H-[1,4]oxazino[2,3,4-ij]quinolin-7-one]
0.9	COc1cc(CN(Cc2cn3c4c(c(F)c(F)cc4c2=O)OCC3)[C@H]2CCCN(c3cnccn3)C2)ccn1 [Compound 84, (S)-9,10-difluoro-6-((((2-methoxypyridin-4-yl)methyl)(1-(pyrazin-2-yl)piperidin-3-yl)amino)methyl)-2,3-dihydro-7H-[1,4]oxazino[2,3,4-ij]quinolin-7-one]
1.3	N#Cc1cc(CN(Cc2cn3c4c(c(F)c(F)cc4c2=O)OCC3)[C@H]2CCCN(c3cnccn3)C2)ccn1 [Compound 89, (S)-4-((((9,10-difluoro-7-oxo-2,3-dihydro-7H-[1,4]oxazino[2,3,4-ij]quinolin-6-yl)methyl)(1-(pyrazin-2-yl)piperidin-3-yl)amino)methyl)picolinonitrile]
1.7	CCOc1cc(CN(Cc2cn3c4c(c(F)c(F)cc4c2=O)OCC3)[C@H]2CCCN(c3cnccn3)C2)ccn1 [Compound 90, (S)-6-((((2-ethoxypyridin-4-yl)methyl)(1-(pyrazin-2-yl)piperidin-3-yl)amino)methyl)-9,10-difluoro-2,3-dihydro-7H-[1,4]oxazino[2,3,4-ij]quinolin-7-one]
1.0	CNC(=O)c1cc(CN(Cc2cn3c4c(c(F)c(F)cc4c2=O)OCC3)[C@H]2CCCN(c3cnccn3)C2)ccn1 [Compound 91, (S)-4-((((9,10-difluoro-7-oxo-2,3-dihydro-7H-[1,4]oxazino[2,3,4-ij]quinolin-6-yl)methyl)(1-(pyrazin-2-yl)piperidin-3-yl)amino)methyl)-N-methylpicolinamide]
1.1	NC(=O)c1cc(CN(Cc2cn3c4c(c(F)c(F)cc4c2=O)OCC3)[C@H]2CCCN(c3cnccn3)C2)ccn1 [Compound 92, (S)-4-((((9,10-difluoro-7-oxo-2,3-dihydro-7H-[1,4]oxazino[2,3,4-ij]quinolin-6-yl)methyl)(1-(pyrazin-2-yl)piperidin-3-yl)amino)methyl)picolinamide]
